Test results reported in article PMC6751184, “Heme and hemoglobin utilization by Mycobacterium tuberculosis” (Nature Communications, 2019).

Target: DppA (Rv3666c), substrate-binding protein of the Dpp transporter (Mycobacterium tuberculosis, UniProt I6X811, W442A)

Question: `C=CC1=C(C)C2=Cc3c(C=C)c(C)c4[n]3[Fe]([Cl])[n]3c(c(C)c(CCC(=O)O)c3=CC3=NC(=C4)C(C)=C3CCC(=O)O)=CC1=N2` [hemin] was tested. Which “SPR; binds but dissociates quickly, reduced affinity” value did it give?
Answer: Its value is “Surface plasmon resonance showed that heme bound to the DppAW442A protein but dissociated quickly”.
